Where two headings read alike, the source gives them in different places.
Assays:
Test in all cases: Ras-Raf disruption / FRET / MOA assay (BRAF RBD)
Assay type in all cases: biochemical
[1] = biological target: KRAS G12D (Homo sapiens, UniProt P01116+P62937, G12D); conditions: with Cyclophilin A
How it was run: (§1)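 TR-FRET in 25 mM HEPES pH 7.3, 100 mM NaCl, 5 mM MgCl2, 0.1% BSA, 0.002% Tween20 with 25 μM Cyclophilin A, 12.5 nM His6-Ras-GMPPNP, 50 nM GST-BRAF RBD; compound 10-point 3-fold series from 30 μM. After 3 h at 25 °C, Eu anti-His/APC anti-GST added for 1.5 h; IC50 from ratio decrease versus DMSO.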

[2] = biological target: KRAS G12S (Homo sapiens, UniProt P01116+P62937, G12S); conditions: with Cyclophilin A
How it was run: as §1

[3] = biological target: KRAS G12V (Homo sapiens, UniProt P01116+P62937, G12V); conditions: with Cyclophilin A
How it was run: as §1

[4] = biological target: KRAS G13C (Homo sapiens, UniProt P01116+P62937, G13C); conditions: with Cyclophilin A
How it was run: as §1

[5] = biological target: KRAS G13D (Homo sapiens, UniProt P01116+P62937, G13D); conditions: with Cyclophilin A
How it was run: as §1

[6] = biological target: KRAS Q61H (Homo sapiens, UniProt P01116+P62937, Q61H)
How it was run: as §1

[7] = biological target: KRAS WT (Homo sapiens, UniProt P01116+P62937); conditions: with Cyclophilin A
How it was run: as §1

[8] = biological target: NRAS G12C (Homo sapiens, UniProt P01111+P62937, G12C)
How it was run: as §1

[9] = biological target: NRAS Q61K (Homo sapiens, UniProt P01111+P62937, Q61K)
How it was run: as §1

[10] = biological target: NRAS Q61R (Homo sapiens, UniProt P01111+P62937, Q61R)
How it was run: as §1

[11] = biological target: NRAS WT (Homo sapiens, UniProt P01111+P62937)
How it was run: as §1

[12] = biological target: KRAS G12C (Homo sapiens, UniProt P01116+P62937, G12C); conditions: with Cyclophilin A
How it was run: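 His6-K-Ras G12C-GMPPNP (12.5 nM), GST-BRAF RBD (50 nM) and tagless Cyclophilin A (25 μM) incubated 3 h at 25 °C with compound (10-point 3-fold series from 30 μM), pH 7.3 HEPES buffer. Anti-His Eu/anti-GST APC added for 1.5 h; decreased TR-FRET ratio vs DMSO gives IC50.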

[13] = Ras-Raf disruption, read-out: KRAS G12D FRET data IC50
[14] = Ras-Raf disruption, read-out: KRAS G12S FRET data IC50
[15] = Ras-Raf disruption, read-out: KRAS G12V FRET data IC50
[16] = Ras-Raf disruption, read-out: KRAS G13C FRET data IC50
[17] = Ras-Raf disruption, read-out: KRAS G13D FRET data IC50
[18] = KRAS Q61H, read-out: KRAS Q61H FRET data IC50
[19] = Ras-Raf disruption, read-out: KRAS WT FRET data IC50
[20] = NRAS G12C, read-out: NRAS G12C FRET data IC50
[21] = NRAS Q61K, read-out: NRAS Q61K FRET data IC50
[22] = NRAS Q61R, read-out: NRAS Q61R FRET data IC50
[23] = NRAS WT, read-out: NRAS WT FRET data IC50
[24] = Ras-Raf disruption, read-out: KRAS G12C FRET data IC50
[25] = KRAS G12D FRET data IC50, Ras-Raf disruption
[26] = KRAS G12S FRET data IC50, Ras-Raf disruption
[27] = KRAS G12V FRET data IC50, Ras-Raf disruption
[28] = KRAS G13C FRET data IC50, Ras-Raf disruption
[29] = KRAS G13D FRET data IC50, Ras-Raf disruption
[30] = KRAS WT FRET data IC50, Ras-Raf disruption
[31] = NRAS G12C FRET data IC50, NRAS G12C
[32] = KRAS G12C FRET data IC50, Ras-Raf disruption

Chain of KRAS G12C (P01116 1-169 isoform P01116-2 G12C limits assumed): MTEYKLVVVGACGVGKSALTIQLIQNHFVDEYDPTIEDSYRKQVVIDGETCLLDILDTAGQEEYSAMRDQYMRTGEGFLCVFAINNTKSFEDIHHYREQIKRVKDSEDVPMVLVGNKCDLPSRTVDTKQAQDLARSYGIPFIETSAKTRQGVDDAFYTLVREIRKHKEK
Chain of KRAS G12C (P62937 whole entry): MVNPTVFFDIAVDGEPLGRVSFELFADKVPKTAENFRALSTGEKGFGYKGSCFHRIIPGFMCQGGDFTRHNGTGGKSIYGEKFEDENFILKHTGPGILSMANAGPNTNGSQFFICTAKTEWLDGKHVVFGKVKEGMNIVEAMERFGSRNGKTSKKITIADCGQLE
Chain of NRAS G12C (P01111 whole entry G12C): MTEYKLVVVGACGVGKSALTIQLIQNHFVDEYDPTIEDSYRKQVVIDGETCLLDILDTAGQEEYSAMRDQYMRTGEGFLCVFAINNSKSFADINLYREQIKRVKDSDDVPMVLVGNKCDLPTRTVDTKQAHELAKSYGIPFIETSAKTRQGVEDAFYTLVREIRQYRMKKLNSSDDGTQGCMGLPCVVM
Chain of NRAS G12C (P62937 whole entry): as the sequence (P62937 whole entry) above
Chain of KRAS G12D (P01116 1-169 isoform P01116-2 G12D limits assumed): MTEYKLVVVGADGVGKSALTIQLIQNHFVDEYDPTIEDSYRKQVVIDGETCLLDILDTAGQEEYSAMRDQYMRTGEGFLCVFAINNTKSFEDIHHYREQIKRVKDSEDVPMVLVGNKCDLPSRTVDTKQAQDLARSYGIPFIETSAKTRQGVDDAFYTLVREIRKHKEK
Chain of KRAS G12D (P62937 whole entry): as the sequence (P62937 whole entry) above
Chain of NRAS Q61K (P01111 whole entry Q61K): as the sequence (P01111 whole entry G12C) above, with C12G, Q61K counted along it
Chain of NRAS Q61K (P62937 whole entry): as the sequence (P62937 whole entry) above
Chain of KRAS G12V (P01116 1-169 isoform P01116-2 G12V limits assumed): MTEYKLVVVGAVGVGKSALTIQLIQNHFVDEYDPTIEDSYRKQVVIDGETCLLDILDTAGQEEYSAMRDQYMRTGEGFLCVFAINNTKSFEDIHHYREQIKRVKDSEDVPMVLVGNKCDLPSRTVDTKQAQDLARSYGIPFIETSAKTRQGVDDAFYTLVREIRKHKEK
Chain of KRAS G12V (P62937 whole entry): as the sequence (P62937 whole entry) above
Chain of KRAS WT (P01116 1-169 isoform P01116-2 limits assumed): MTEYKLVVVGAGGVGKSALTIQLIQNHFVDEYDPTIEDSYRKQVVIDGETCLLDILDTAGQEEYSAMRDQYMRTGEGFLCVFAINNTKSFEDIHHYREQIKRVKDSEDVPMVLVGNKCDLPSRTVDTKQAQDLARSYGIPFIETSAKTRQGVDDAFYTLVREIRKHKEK
Chain of KRAS WT (P62937 whole entry): as the sequence (P62937 whole entry) above
Chain of KRAS G13C (P01116 1-169 isoform P01116-2 G13C limits assumed): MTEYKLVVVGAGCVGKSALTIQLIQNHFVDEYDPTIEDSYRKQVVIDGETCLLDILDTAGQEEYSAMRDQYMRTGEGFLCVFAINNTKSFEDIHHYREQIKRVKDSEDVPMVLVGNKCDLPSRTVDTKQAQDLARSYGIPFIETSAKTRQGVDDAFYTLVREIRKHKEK
Chain of KRAS G13C (P62937 whole entry): as the sequence (P62937 whole entry) above
Chain of NRAS Q61R (P01111 whole entry Q61R): as the sequence (P01111 whole entry G12C) above, with C12G, Q61R counted along it
Chain of NRAS Q61R (P62937 whole entry): as the sequence (P62937 whole entry) above
Chain of KRAS Q61H (P01116 1-169 isoform P01116-2 Q61H limits assumed): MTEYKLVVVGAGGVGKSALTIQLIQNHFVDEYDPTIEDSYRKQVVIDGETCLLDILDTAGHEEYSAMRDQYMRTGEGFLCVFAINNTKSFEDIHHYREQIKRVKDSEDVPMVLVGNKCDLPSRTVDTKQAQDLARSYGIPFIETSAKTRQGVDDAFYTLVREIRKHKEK
Chain of KRAS Q61H (P62937 whole entry): as the sequence (P62937 whole entry) above
Chain of KRAS G13D (P01116 1-169 isoform P01116-2 G13D limits assumed): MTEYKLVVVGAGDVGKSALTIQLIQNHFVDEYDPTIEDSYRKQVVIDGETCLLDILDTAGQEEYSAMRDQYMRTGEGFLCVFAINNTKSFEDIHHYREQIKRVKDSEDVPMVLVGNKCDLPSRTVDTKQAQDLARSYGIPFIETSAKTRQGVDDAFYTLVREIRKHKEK
Chain of KRAS G13D (P62937 whole entry): as the sequence (P62937 whole entry) above
Chain of NRAS WT (P01111 whole entry): as the sequence (P01111 whole entry G12C) above, with C12G counted along it
Chain of NRAS WT (P62937 whole entry): as the sequence (P62937 whole entry) above
Chain of KRAS G12S (P01116 1-169 isoform P01116-2 G12S limits assumed): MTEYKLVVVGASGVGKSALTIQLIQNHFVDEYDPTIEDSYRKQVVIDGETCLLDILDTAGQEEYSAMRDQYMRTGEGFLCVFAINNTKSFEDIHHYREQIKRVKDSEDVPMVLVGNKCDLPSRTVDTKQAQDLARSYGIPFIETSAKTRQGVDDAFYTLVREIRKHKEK
Chain of KRAS G12S (P62937 whole entry): as the sequence (P62937 whole entry) above

| Compound | IC50 [1, 13] [µM] | IC50 [2, 14] [µM] | IC50 [3, 15] [µM] | IC50 [4, 16] [µM] | IC50 [5, 17] [µM] | IC50 [6, 18] [µM] | IC50 [7, 19] [µM] | IC50 [8, 20] [µM] | IC50 [9, 21] [µM] | IC50 [10, 22] [µM] | IC50 [11, 23] [µM] | IC50 [12, 24] [µM] | other results |
| --- | --- | --- | --- | --- | --- | --- | --- | --- | --- | --- | --- | --- | --- |
| CCn1c(-c2cccnc2[C@H](C)OC)c2c3cc(ccc31)-c1csc(n1)C[C@H](NC(=O)[C@H](C(C)C)N(C)C(=O)N1CCC[C@H](N(C)C(=O)[C@@H]3CN3)C1)C(=O)N1CCC[C@H](N1)C(=O)OCC(C)(C)C2 (atropisomer, axis not shown) [Example 292] | 1 to 10 | 0.1 to 1 | 0.1 to 1 | 0.1 to 1 | 1 to 10 | 0.1 to 1 | 0.1 to 1 | 0.1 to 1 | 0.1 to 1 | 0.1 to 1 | 0.1 to 1 | 0.1 to 1 |  |
| CCn1c(-c2cccnc2[C@H](C)OC)c2c3cc(ccc31)-c1cc(O)cc(c1)C[C@H](NC(=O)[C@H](C(C)C)N(C)C(=O)[C@]1(F)CCN(C(=O)[C@H]3CN3)C1)C(=O)N1CCC[C@H](N1)C(=O)OCC(C)(C)C2 (atropisomer, axis not shown) [Example 311] | 0.1 to 1 | 0.1 to 1 | 0.1 to 1 | 0.01 to 0.1 | 0.1 to 1 | 0.01 to 0.1 | 0.1 to 1 | < 0.01 | 0.1 to 1 | 0.1 to 1 | 0.01 to 0.1 | < 0.01 |  |
| CCn1c(-c2cccnc2[C@H](C)OC)c2c3cc(ccc31)-c1csc(n1)C[C@H](NC(=O)[C@H](C(C)C)N(C)C(=O)N1CCN(C(=O)[C@@H]3CN3)C[C@H]1C)C(=O)N1CCC[C@H](N1)C(=O)OCC(C)(C)C2 [Example 302] | 0.1 to 1 | 0.01 to 0.1 | 0.01 to 0.1 | 0.1 to 1 | 0.1 to 1 | 0.01 to 0.1 | 0.01 to 0.1 | 0.01 to 0.1 | 0.01 to 0.1 | 0.01 to 0.1 | 0.01 to 0.1 | 0.01 to 0.1 |  |
| CCn1c(-c2cccnc2[C@H](C)OC)c2c3cc(ccc31)-c1cc(O)cc(c1)C[C@H](NC(=O)[C@H](C(C)C)N(C)C(=O)[C@H]1C[C@H]3CC[C@@H](C1)N3C(=O)[C@@H]1CN1)C(=O)N1CCC[C@H](N1)C(=O)OCC(C)(C)C2 (atropisomer, axis not shown) [Example 246] | 1 to 10 | 0.1 to 1 | 0.1 to 1 | 0.01 to 0.1 | 0.1 to 1 | < 0.01 | 0.01 to 0.1 | 0.01 to 0.1 | 0.01 to 0.1 | 0.1 to 1 | 0.01 to 0.1 | 0.01 to 0.1 |  |
| CCn1c(-c2cccnc2[C@H](C)OC)c2c3cc(ccc31)-c1cc(O)cc(c1)C[C@H](NC(=O)[C@H](C(C)C)N(C)C(=O)[C@@H]1CCN(C(=O)[C@@H]3CN3)[C@@H]1C)C(=O)N1CCC[C@H](N1)C(=O)OCC(C)(C)C2 (atropisomer, axis not shown) [Example 208] | 0.1 to 1 | 0.01 to 0.1 | 0.01 to 0.1 | 0.01 to 0.1 | 0.1 to 1 | 0.01 to 0.1 | 0.01 to 0.1 | 0.01 to 0.1 | 0.1 to 1 | 0.1 to 1 | 0.01 to 0.1 | 0.01 to 0.1 |  |
| CCn1c(-c2cccnc2[C@H](C)OC)c2c3cc(ccc31)-c1cc(O)cc(c1)C[C@H](NC(=O)[C@H](C(C)C)N(C)C(=O)N1C[C@@H]3[C@H]1CCN3C(=O)[C@H]1CN1)C(=O)N1CCC[C@H](N1)C(=O)OCC(C)(C)C2 (atropisomer, axis not shown) [Example 250] | 1 to 10 | 0.1 to 1 | 0.1 to 1 | 0.1 to 1 | 1 to 10 | 0.1 to 1 | 0.1 to 1 | 0.1 to 1 | 1 to 10 | 1 to 10 | 0.1 to 1 | 0.01 to 0.1 |  |
| CCN1C[C@@H]1C(=O)N(C)CC(=O)N(C)[C@H](C(=O)N[C@H]1Cc2cc(O)cc(c2)-c2ccc3c(c2)c(c(-c2cccnc2[C@H](C)OC)n3CC)CC(C)(C)COC(=O)[C@@H]2CCCN(N2)C1=O)C1CCCC1 (stereo partly drawn) [Example 309] |  |  |  |  |  |  |  |  |  |  |  |  | IC50 [1, 25]: 0.01 to 0.1 µM; IC50 [2, 26]: 0.01 to 0.1 µM; IC50 [3, 27]: 0.01 to 0.1 µM; IC50 [4, 28]: 0.01 to 0.1 µM; IC50 [5, 29]: 0.01 to 0.1 µM; IC50 [6]: 0.01 to 0.1 µM; IC50 [7, 30]: 0.01 to 0.1 µM; IC50 [8, 31]: < 0.01 µM; IC50 [9]: 0.1 to 1 µM; IC50 [10]: 0.1 to 1 µM; IC50 [11]: 0.01 to 0.1 µM; IC50 [12, 32]: < 0.01 µM |
| CCn1c(-c2cccnc2[C@H](C)OC)c2c3cc(ccc31)-c1cc(O)cc(c1)C[C@H](NC(=O)[C@H](C(C)C)N(C)C(=O)[C@H]1CCN(C(=O)C3OC3c3ccccc3)C1)C(=O)N1CCC[C@H](N1)C(=O)OCC(C)(C)C2 (stereo partly drawn) [Example 331] | 0.1 to 1 | 0.01 to 0.1 | 0.01 to 0.1 | 0.01 to 0.1 | 0.1 to 1 | 0.01 to 0.1 | 0.01 to 0.1 | 0.01 to 0.1 | 0.1 to 1 | 0.1 to 1 | 0.01 to 0.1 | < 0.01 |  |
| CCn1c(-c2cccnc2[C@H](C)OC)c2c3cc(ccc31)-c1cc(O)cc(c1)C[C@H](NC(=O)[C@H](C(C)C)N(C)C(=O)C13CCC(CC1)N3C(=O)[C@H]1CN1)C(=O)N1CCC[C@H](N1)C(=O)OCC(C)(C)C2 [Example 202] |  |  |  |  |  |  |  |  |  |  |  |  | IC50 [1, 25]: 0.1 to 1 µM; IC50 [2, 26]: 0.1 to 1 µM; IC50 [3, 27]: 0.1 to 1 µM; IC50 [4, 28]: 0.1 to 1 µM; IC50 [5, 29]: 0.1 to 1 µM; IC50 [6]: 0.01 to 0.1 µM; IC50 [7, 30]: 0.1 to 1 µM; IC50 [8, 31]: 0.01 to 0.1 µM; IC50 [9]: 0.1 to 1 µM; IC50 [10]: 0.1 to 1 µM; IC50 [11]: 0.1 to 1 µM; IC50 [12, 32]: 0.01 to 0.1 µM |
| CCn1c(-c2cccnc2[C@H](C)OC)c2c3cc(ccc31)-c1cc(O)cc(c1)C[C@H](NC(=O)[C@H](C1CCCC1)N(C)C(=O)CN(C)C(=O)[C@@H]1N[C@@H]1C1(F)CC1)C(=O)N1CCC[C@H](N1)C(=O)OCC(C)(C)C2 [Example 314] |  |  |  |  |  |  |  |  |  |  |  |  | IC50 [1, 25]: 0.1 to 1 µM; IC50 [2, 26]: 0.01 to 0.1 µM; IC50 [3, 27]: 0.01 to 0.1 µM; IC50 [4, 28]: 0.01 to 0.1 µM; IC50 [5, 29]: 0.01 to 0.1 µM; IC50 [6]: 0.01 to 0.1 µM; IC50 [7, 30]: 0.01 to 0.1 µM; IC50 [8, 31]: 0.01 to 0.1 µM; IC50 [9]: 0.1 to 1 µM; IC50 [10]: 0.1 to 1 µM; IC50 [11]: 0.01 to 0.1 µM; IC50 [12, 32]: 0.01 to 0.1 µM |
| CCn1c(-c2cccnc2[C@H](C)OC)c2c3cc(ccc31)-c1cc(O)cc(c1)C[C@H](NC(=O)[C@H](C(C)C)N(C)C(=O)C1CN(S(=O)(=O)[C@H]3CN3C)C1)C(=O)N1CCC[C@H](N1)C(=O)OCC(C)(C)C2 (single isomer, unassigned) [Example 117] | 1 to 10 | 0.1 to 1 | 0.1 to 1 | 0.01 to 0.1 | 0.1 to 1 | 0.01 to 0.1 | 0.1 to 1 | 0.1 to 1 | 0.1 to 1 | 0.1 to 1 | 0.01 to 0.1 | 0.01 to 0.1 |  |
| CCn1c(-c2cccnc2[C@H](C)OC)c2c3cc(ccc31)-c1csc(n1)C[C@H](NC(=O)[C@H](C(C)C)N(C)C(=O)N1CCN(C(=O)[C@@H]3CN3)[C@@H](C)C1)C(=O)N1CCC[C@H](N1)C(=O)OCC(C)(C)C2 [Example 298] | 0.1 to 1 | 0.01 to 0.1 | 0.1 to 1 | 0.1 to 1 | 0.1 to 1 | 0.01 to 0.1 | 0.01 to 0.1 | 0.01 to 0.1 | 0.01 to 0.1 | 0.01 to 0.1 | 0.01 to 0.1 | 0.01 to 0.1 |  |

Reference: patent US20230233569A1 (Revolution Medicines, Inc., priority 2020, published 2023)
